Experimental findings from patent US8288398B2, “Antiproliferative pyrimidyl, fused pyrimidyl and pyrimidyl hydrazones” (Merck Serono SA, priority 2005, dated 2012) are described below.

One may read the pIC50 as the negative decadic logarithm of the IC50, by convention in mol/L. A high value points to a small IC50.

In assay [1] the test system is Colon cancer (C26, murine) cells. Description: Tumor cell proliferation assay (ATP-lite), C26. In kind it is cell-based. The conditions noted are these: Mus musculus, 96 h, inhibition of tumor cell growth by 50%, 4 days incubation, ATP-lite readout. The procedure: (§1) Assay 1: Tumor Cell Proliferation Assay:
(§2) Colon cancer (C26, murine), pancreatic cancer (MiaPaCa-2, human) cells were plated in 96-well white plates (Cat. No. 3917, Corning, Inc.) at 2.5×10^3 cells/well and cultured overnight at 37° C. in 5% CO2 in DMEM containing 10% FCS. Inhibitors were serially diluted in 100% DMSO and subsequently added to cells to reach a final concentration of 0.25% DMSO. Cell plates were incubated for an additional 4 days at 37° C. and 5% CO2 and cell proliferation was quantitated using the ATP-lite cell proliferation kit (Cat. No. 6016943, Perkin Elmer).
(§3) The ATPlite kit quantifies the ATP released from lysed cells by the generation of light caused by the reaction of the released ATP with the Luciferase and D-Luciferin contained in the kit. After the 4th day of incubation, the media is removed from the cell plates and replaced with 100 μL of PBS followed by 50 μL of the lysis solution. The plates are then shaken for 5 minutes on an orbital shaker followed by the addition of 50 μL of substrate solution. The plates are shaken for an additional 5 minutes followed by dark adaptation for 10 minutes and finally read on a Victor^3 V plate reader (1 second/well, Cat. No. 1420-041, Perkin Elmer).
(§4) Columns 2-3 show the concentration of compounds required to inhibit the growth of tumor cells by 50% (IC50 in μM).

In assay [2] the test system is pancreatic cancer (MiaPaCa-2, human) cells. Description: Tumor cell proliferation assay (ATP-lite), MiaPaCa-2. It counts as cell-based. The conditions noted are these: MIA PaCa-2, 96 h; inhibition of tumor cell growth by 50%; MiaPaCa-2 human pancreatic cancer cells; 4 days incubation; ATP-lite readout. The procedure:
as §1, §2, §3, §4

pIC50: −log10 of the molar value.

Consider `CC(=NN(C)c1nc(C(F)(F)F)nc2ccccc12)c1cccc(C)c1` [Compound 1], for which the pIC50 in assay [1] and in assay [2] was more than 6.00 throughout. `CC(=NNc1nc(C(F)(F)F)nc2ccccc12)c1ccc(C)cc1` [Compound 3, N-(1-p-Tolyl-ethylidene)-N′-(2-trifluoromethyl-quinazolin-4-yl)-hydrazine]: the pIC50 in assay [1] and in assay [2] was 4.82 to 6.00 in each case. In the case of `COc1ccc(C(C)=NNc2nc(C)nc3ccccc23)cc1` [Compound 4, N-[1-(4-methoxy-phenyl)-ethylidene]-N′-(2-methyl-quinazolin-4-yl)-hydrazine], the pIC50 in assay [1] and in assay [2] was 4.82 to 6.00 each time. For the compound `CC(=NNc1nc(C)nc2ccccc12)c1ccc(C)cc1` [Compound 5, N-(2-Methyl-quinazolin-4-yl)-N-(1-p-tolyl-ethylidene)-hydrazine], the pIC50 in assay [1] and in assay [2] was 4.82 to 6.00 throughout. Take `CC(=NNc1nc(C)nc2ccccc12)c1cccc(C)c1` [Compound 6, N-(2-methyl-quinazolin-4-yl)-N′-(1-m-tolyl-ethylidene)-hydrazine]: the pIC50 in assay [1] and in assay [2] was 4.82 to 6.00 in each case. For the compound `CC(=NNc1cc(-c2ccccc2)nc(C)n1)c1ccc(N(C)C)cc1` [Compound 8, Dimethyl-(4-{1-[(2-methyl-6-phenyl-pyrimidin-4-yl)-hydrazono]ethyl}-phenyl)amine], the pIC50 in assay [1] and in assay [2] was more than 6.00 in each case. `COc1ccccc1-c1cc(NN=C(C)c2ccc(N(C)C)cc2)nc(C)n1` [Compound 9]: the pIC50 in assay [1] and in assay [2] was more than 6.00 in each case.

Regarding `CC(=NNc1cc(-c2c(C)noc2C)nc(C)n1)c1ccc(N(C)C)cc1` [Compound 10, (4-(1-{[6-(3,5-dimethyl-isoxazol-4-yl)-2-methyl-pyrimidin-4-yl]-hydrazono}-ethyl)-phenyl]-dimethylamine], the negative-log IC50 (pIC50) in assay [1] and in assay [2] was more than 6.00 each time. As for `CC(=NNc1cc(-c2ccccc2OC(F)(F)F)nc(C)n1)c1ccc(N(C)C)cc1` [Compound 11, Dimethyl-[4-(1-{[2-methyl-6-(2-trifluoromethoxy-phenyl)-pyrimidin-4-yl]-hydrazono}-ethyl)-phenyl]-amine], the pIC50 in assay [1] and in assay [2] was more than 6.00 each time. Take `CC(=NNc1cc(-c2ccccc2OC(C)C)nc(C)n1)c1ccc(N(C)C)cc1` [Compound 12, [4-(1-{[6-(2-Isopropoxy-phenyl)-2-methyl-pyrimidin-4-yl]-hydrazono}-ethyl)-phenyl]-dimethylamine]: the pIC50 in assay [1] was 4.82 to 6.00; in assay [2], more than 6.00. In the same order, the values of `CC(=NNc1cc(-c2ccccc2F)nc(C)n1)c1ccc(N(C)C)cc1` [Compound 13, [4-(1-{[6-(2-Fluoro-phenyl)-2-methyl-pyrimidin-4-yl]-hydrazono}-ethyl)-phenyl]-dimethylamine] are more than 6.00 and more than 6.00. Turning to `CC(=NNc1cc(-c2ccccc2N)nc(C)n1)c1ccc(N(C)C)cc1` [Compound 14, [4-(1-{[6-(2-amino-phenyl)-2-methyl-pyrimidin-4-yl]-hydrazono}-ethyl)-phenyl]-dimethylamine], the pIC50 in assay [1] and in assay [2] was more than 6.00 each time. `COc1nc(NN=C(C)c2ccc(N(C)C)cc2)cc(-c2ccccc2)n1` [Compound 15, (4-{1-[(2-Methoxy-6-phenyl-pyrimidin-4-yl)-hydrazono]-ethyl}-phenyl)-dimethylamine]: the pIC50 in assay [1] and in assay [2] was more than 6.00 throughout.

For the compound `CCc1nc(NN=C(C)c2ccc(N(C)C)cc2)cc(-c2ccccc2OC)n1` [Compound 16, [4-(1{[2-Ethyl-6-(2-methoxy-phenyl)-pyrimidin-4-yl]-hydrazono}-ethyl)-phenyl]-dimethylamine], the pIC50 in assay [1] and in assay [2] was more than 6.00 each time. Consider `COc1ccccc1-c1cc(NN=C(C)c2ccc(N(C)C)cc2)ncn1` [Compound 17, [4-(1-{[6-(2-Methoxy-phenyl)-pyrimidin-4-yl]-hydrazono}-ethyl)-phenyl]dimethyl amine], for which the negative logarithm of the IC50 (pIC50) in assay [1] and in assay [2] was more than 6.00 throughout. Take `CNc1ccc(C(C)=NNc2cc(-c3ccccc3)nc(C)n2)cc1` [Compound 18, Methyl-(4-{1-[(2-methyl-6-phenyl-pyrimidin-4-yl)-hydrazono]-ethyl}-phenyl)-amine]: the pIC50 in assay [1] and in assay [2] was more than 6.00 each time.

Regarding `CC(=NNc1cc(-c2ccccc2)nc(C)n1)c1ccc(NC(N)=S)cc1` [Compound 19, 4-({1-[(2-Methyl-6-phenyl-pyrimidin-4-yl)-hydrazono]-ethyl}-phenyl)-thiourea], the pIC50 in assay [1] and in assay [2] was 4.82 to 6.00 throughout. As to `CC(=O)Nc1ccc(C(C)=NNc2cc(-c3ccccc3)nc(C)n2)cc1` [Compound 20, N-(4-{1-[(2-Methyl-6-phenyl-pyrimidin-4-yl)-hydrazono]-ethyl}-phenyl)-acetamide], the pIC50 in assay [1] and in assay [2] was 4.82 to 6.00 throughout.

For the compound `CNc1ccc(C(C)=NNc2nc(C)nc(-c3ccccc3)c2N)cc1` [Compound 21, 2-Methyl-4-{N′-[1-(4-methylamino-phenyl)-ethylidene]-hydrazino}-6-phenyl-pyrimidin-5-ylamine], the pIC50 in assay [1] and in assay [2] was more than 6.00 each time. On to `CCC(=NNc1cc(-c2ccccc2)nc(C)n1)c1ccc(C)cc1` [Compound 22, N-(2-Methyl-6-phenyl-pyrimidin-4-yl)-N′-[1-p-tolyl-propylidene]-hydrazine], for which the pIC50 in assay [1] and in assay [2] was 4.82 to 6.00 in each case. `CC(=NNc1cc(-c2ccccc2)nc(C)n1)c1ccc(Cl)cc1` [Compound 23, N-[1-(4-Chloro-phenyl)ethylidene]-N′-(2-methyl-6-phenyl-pyrimidin-4-yl)-hydrazine] gave a pIC50 in assay [1] of 4.82 to 6.00. Still for that read-out and setting: as for `COc1ccc(C(C)=NNc2cc(-c3ccccc3)nc(C)n2)cc1` [Compound 24, N-[1-(4-Methoxy-phenyl)-ethylidene]-N′-(2-methyl-6-phenyl-pyrimidin-4-yl)-hydrazine], the figure is more than 6.00.

On to `COc1ccccc1-c1cc(NN=C(C)c2ccc(C)cc2)ncn1` [Compound 25, N-[6-(2-Methoxy-phenyl)-pyrimidin-4-yl]-N′-[1-p-tolyl-ethylidene]-hydrazine], for which the pIC50 in assay [1] and in assay [2] was more than 6.00 each time. Take `CCc1nc(NN=C(C)c2ccc(C)cc2)cc(-c2ccccc2OC)n1` [Compound 26, N-[2-Ethyl-6-(2-methoxy-phenyl)-pyrimidin-4-yl]-N′-[1-p-tolyl-ethylidene]-hydrazine]: the negative-log IC50 (pIC50) in assay [1] and in assay [2] was more than 6.00 throughout. Turning to `CC(=NNc1cc(-c2ccccc2F)nc(C)n1)c1ccc(C)cc1` [Compound 27, N-[6-(2-Fluoro-phenyl)-2-methyl-pyrimidin-4-yl]-N′-[1-p-tolyl-ethylidene]-hydrazine], the pIC50 in assay [1] and in assay [2] was more than 6.00 throughout.

In assay [2], `COc1cccc(-c2cc(NN=C(C)c3ccc(C)cc3)nc(C)n2)c1` [Compound 28, N-[6-(3-Methoxy-phenyl)-2-methylpyrimidin-4-yl]-N′-[1-p-tolyl-ethylidene]-hydrazine] showed a pIC50 of 4.82 to 6.00. On the same count and under the same terms, as for `COc1ccc(-c2cc(NN=C(C)c3ccc(C)cc3)nc(C)n2)cc1` [Compound 30, N-[6-(4-Methoxy-phenyl)-2-methylpyrimidin-4-yl]-N′-[1-p-tolyl-ethylidene]-hydrazine], the figure is 4.82 to 6.00. In assay [1], `CC(=NNc1cc(-c2cccnc2)nc(C)n1)c1ccc(C)cc1` [Compound 37, N-(2-Methyl-6-pyridin-3-yl-pyrimidin-4-yl)-N′-[1-p-tolyl-ethylidene]-hydrazine] showed a pIC50 of 4.82 to 6.00.

`CCc1ccc(C(C)=NNc2cc(-c3ccccc3)nc(C)n2)cc1` [Compound 43, N-[1-(4-Ethyl-phenyl)-ethylidene]-N′-(2-methyl-6-phenyl-pyrimidin-4-yl)-hydrazine]: in assay [1], the pIC50 is more than 6.00. Still for that read-out and setting: as for `CC(=NNc1cc(-c2ccccc2)nc(C)n1)c1ccc(Br)cc1` [Compound 44, N-[1-(4-Bromo-phenyl)-ethylidene]-N′-(2-methyl-6-phenyl-pyrimidin-4-yl)-hydrazine], the figure is 4.82 to 6.00; as for `CC(=NNc1cc(-c2ccccc2)nc(C)n1)c1ccc(I)cc1` [Compound 45, N-[1-(4-Iodo-phenyl)-ethylidene]-N′-(2-methyl-6-phenyl-pyrimidin-4-yl)-hydrazine], 4.82 to 6.00; as for `CC(=NNc1cc(-c2ccccc2)nc(C)n1)c1cccc(N)c1` [Compound 46, 3-{1-[(2-Methyl-6-phenyl-pyrimidin-4-yl)-hydrazono]-ethyl}-phenylamine], 4.82 to 6.00. `CC(=NNc1cc(-c2ccccc2)nc(C)n1)c1ccc(Cl)c(Cl)c1` [Compound 47, N-[1-(3,4-Dichloro-phenyl)-ethylidene]-N′-(2-methyl-6-phenyl-pyrimidin-4-yl)-hydrazine]: in assay [1], the pIC50 was 4.82 to 6.00. Consider `CC(=NNc1cc(-c2ccccc2)nc(C)n1)c1ccc(O)cc1` [Compound 48, 4-{1-[(2-Methyl-6-phenyl-pyrimidin-4-yl)-hydrazono]-ethyl}-phenol], for which the pIC50 in assay [1] is 4.82 to 6.00.
